We go through twelve compounds from patent US5707615A, “Method of treating HIV infections with anti-viral formulations” (Merrell Pharmaceuticals Inc., priority 1997, dated 1998).

In data set [1] the test system is HIV (Strain RF). In words: Anti-HIV activity in C8166 cells infected with HIV strain RF: syncytia and p24 (Example VI). The class given is cell-based. To be noted: for p24 % of VIRUS CONTROL: 2880 min. How it is done:
Protocol: C8166 cells were infected with HIV (Strain RF) for 1 hour at room temperature to give a multiplicity of infection of approximately 0.01 infectious units per cell.

Data set [2] has as its system HIV-I (RF). As to the kind of experiment: Effect of treating HIV-I (RF)-infected cells (C8166) 24 hours post-infection (Example V, Table VII). Conditions: for P24 DAY 6 p.i. / SYNCYTIA/WELL DAY 2 / SYNCYTIA/WELL DAY 3: 10 μM; for activity at 10 µM: Human immunodeficiency virus 1, C8166, 144 h, read-out: P24 % CONTROL, 10 μM.
Protocol: Cells were infected with strain RF or GB8 for 24 hours at 37° C. at a multiplicity of infection of 0.001. Cells were washed three times to remove residual virus and then replated into fresh growth medium. Cells were then treated for 24 and 48 hours post-infection (p.i.) with the indicated concentrations of test compounds. Syncytia and P24 antigen levels were determined on the indicated days p.i. by methods described before.
The subject of data set [3] is HIV (Strain GB8). In words: JM cells infected with HIV strain GB8: syncytia and p24 (Example VII). The class given is cell-based. To be noted: for p24 3 days p.i.: supernatant screened at 1/100 dilution. The protocol:
JM cells were infected with HIV (Strain GB8) to give approximately 200 syncytia/1×10^5 cells after 3 days; virus infection was for 1 hour at room temperature.

For data set [4], the system named is HIV-I (GB8). In words: Pretreatment of JM cells and block of HIV-I (GB8) infection (Example IV). Conditions: pretreated overnight at 20 μg/mL.
Protocol: JM cells were pretreated overnight at 37° C. with different compounds at 20 μg/mL or left untreated. The cells were washed 3 times in RPMI medium and then infected with HIV-I (GB8) for 2 hours at room temperature. The cells were again washed 3 times in RPMI medium and resuspended in fresh medium prior to being distributed into duplicate wells and incubated at 37° C. After 2 days syncytia were scored and the cell free supernatant fluid harvested and assayed for P24 viral core antigen using the Coulter™ HIV antigen assay.
Data set [5] concerns MT4 cells. As to the kind of experiment: Toxicity to MT4 cells (TD50, Table IV, MTT). The class given is cell-based. To be noted: MT4 cells, 7 days, MTT. The protocol:
(§1) Various oligomers were dissolved in RPMI and were then assayed for anti-HIV activity by making doubling dilutions of the solutions across a 96 well microtitre plate. To each well were then added 5×10^4 cells and 100 TCID50 of virus and the plates incubated at 37° C. for 7 days. MTT was added to each well and the plates incubated for a further 2 hours. The blue formazan crystals were dissolved using acidic isopropanol, and the absorbance measured at 540 nm.

Data set [6] deals with HIV strain RF. As to the kind of experiment: Ability to prevent virus-induced cell death using MT4 cells and strain RF (Example III). The class given is cell-based. Conditions: MT4 cells, 7 days, MTT, 10080 min. How it is done: as §1

Read-outs that look alike come from different tables or passages of the source.

Regarding `Cc1cn([C@H]2C[C@H](N=[N+]=[N-])[C@@H](CO)O2)c(=O)[nH]c1=O` [AZT, reference compound], the “p24 Day 2” value in data set [1] (0.1 μg/ml) was “neg”. For the same compound, in data set [1] (1 μg/ml), the “SYNCYTIA Day 2” value is given as 0 and the “p24 Day 2” value was “neg”. Besides, in data set [1] (Human immunodeficiency virus 1, C8166, 48 h, 0.1 μg/ml, read-out: p24 % of VIRUS CONTROL), the activity at 0.1 µg/mL was found to be 0%. Also, in data set [1] (Human immunodeficiency virus 1, C8166, 48 h, 1 μg/ml, read-out: p24 % of VIRUS CONTROL), the activity at 1 µg/mL was 0%. For the same compound, in data set [2] (addition 0 hours p.i.), the “P24 DAY 6 p.i.” value was found to be 10000 pg/mL, the “SYNCYTIA/WELL DAY 2” value came out at 0, the “SYNCYTIA/WELL DAY 3” value worked out at 0 and the activity at 10 µM was determined as 1.1%. In addition, in data set [2] (addition 24 hours p.i.), the “P24 DAY 6 p.i.” value was determined as 44000 pg/mL and the activity at 10 µM was determined as 4.6%.
For the compound `Nc1ccn([C@H]2CC[C@@H](CO)O2)c(=O)n1` [ddC, reference compound], in data set [2] (addition 0 hours p.i.), the “P24 DAY 6 p.i.” value amounted to 13000 pg/mL, the “SYNCYTIA/WELL DAY 2” value stood at 0, the “SYNCYTIA/WELL DAY 3” value stood at 0 and the activity at 10 µM was 1.4%. In addition, in data set [2] (addition 24 hours p.i.), the “P24 DAY 6 p.i.” value was determined as 420000 pg/mL and the activity at 10 µM came out at 44.2%. Besides, in data set [3] (0.01 μg/ml), the “MEAN SYNCYTIA 3 days p.i.” value was determined as 80 and the “p24 3 days p.i.” value amounted to 5400 pg/mL. In data set [3] (0.1 μg/ml), the “MEAN SYNCYTIA 3 days p.i.” value came to 2 and the “p24 3 days p.i.” value is on record as “neg”. Also, in data set [3] (1 μg/ml), the “MEAN SYNCYTIA 3 days p.i.” value came to 0 and the “p24 3 days p.i.” value is listed as “neg”. For the same compound, in data set [3] (10 μg/ml), the “MEAN SYNCYTIA 3 days p.i.” value is 0 and the “p24 3 days p.i.” value is “neg”.
Dextran Sulfate [reference compound]: in data set [4], the P24 came out at 28710 pg/mL. For the same compound, in data set [4] (2 days), the “MEAN SYNCYTIA” value came to 184. Moreover, in data set [4] (% of control, 2880 min), the P24 % stood at 101% and the SYNCYTIA % amounted to 155%.
In turn, “poly[imino(2,5-disulfo-1,4-phenylene)iminocarbonyl], alpha-{[(4-methylphenyl)amino]carbonyl}-omega-[(4-methylphenyl)amino]- [Example 3B]” yielded a TD50 in data set [5] of over 100 µg/mL. This compound displayed an ED50 in data set [6] of 1.7 µg/mL.
In data set [5], “poly[imino(3-sulfo-1,4-phenylene)-1,2-ethenediyl-(2-sulfo-1,4-phenylene)iminocarbonyl], alpha-{[(4-methylphenyl)aminocarbonyl}-omega-[(4-methylphenyl)amino- [Example 2A]” yielded a TD50 of over 100 µg/mL. In addition, the ED50 in data set [6] is 1.9 µg/mL.
The corresponding values for “poly[imino(3-sulfo-1,4-phenylene)-1,2-ethenediyl-(2-sulfo-1,4-phenylene)iminocarbonyl], alpha-{[(4-methylphenyl)aminocarbonyl}-omega-[(4-methylphenyl)amino- [Example 2B]” are over 100 µg/mL and 2.5 µg/mL.
For “poly[oxy(2,5-disulfo-1,4-phenylene)oxycarbonyl-1,4-phenylenecarbonyl]- [Example 7]”, the “p24 Day 2” value in data set [1] (12 μg/ml) is 3140 pg/mL; in data set [1] (25 μg/ml) it was 1450 pg/mL; in data set [1] (50 μg/ml) it was 870 pg/mL; in data set [1] (100 μg/ml) it was “neg”. In addition, the “p24 % of VIRUS CONTROL” value in data set [1] (12 μg/ml) turned out to be 98%; in data set [1] (25 μg/ml), 45%; in data set [1] (50 μg/ml), 27%; in data set [1] (100 μg/ml) it was 0%. The “MEAN SYNCYTIA 3 days p.i.” value in data set [3] (25 μg/ml) stood at 43; in data set [3] (50 μg/ml), 24; in data set [3] (100 μg/ml) it was 7; in data set [3] (200 μg/ml), 0. For the same compound, the “p24 3 days p.i.” value in data set [3] (25 μg/ml), in data set [3] (50 μg/ml), in data set [3] (100 μg/ml) and in data set [3] (200 μg/ml) was “neg” in each case.
Regarding “poly[oxy(2,5-disulfo-1,4-phenylene)oxycarbonyl], alpha-[(4-methylphenoxy)carbonyl]-omega-(4-methylphenoxy)- [Example 4]”, the “p24 Day 2” value in data set [1] (12 μg/ml) amounted to 3050 pg/mL; in data set [1] (25 μg/ml) it was 4820 pg/mL; in data set [1] (50 μg/ml) it was 2820 pg/mL; in data set [1] (100 μg/ml) it was 1930 pg/mL. For the same compound, the “p24 % of VIRUS CONTROL” value in data set [1] (12 μg/ml) came out at 95%; in data set [1] (25 μg/ml), 100%; in data set [1] (50 μg/ml), 88%; in data set [1] (100 μg/ml) it was 60%. Also, the “MEAN SYNCYTIA 3 days p.i.” value in data set [3] (25 μg/ml) was 95; in data set [3] (50 μg/ml), 64; in data set [3] (100 μg/ml) it was “Toxic”; in data set [3] (200 μg/ml), “Toxic”. The “p24 3 days p.i.” value in data set [3] (25 μg/ml) was 6500 pg/mL; in data set [3] (50 μg/ml), “neg”.
In the case of “poly{imino[2,2'-disulfo(1,1'-biphenyl)-4,4'-diyl]iminocarbonyl-1,4-phenylenecarbonyl}, alpha-{[(4-methylphenyl)amino]carbonyl}-omega-[(4-methylphenyl)amino]- [Example 8B]”, the TD50 in data set [5] is over 100 µg/mL. The same compound showed an ED50 in data set [6] of 2.1 µg/mL.
In the same order, the values of “poly{imino[2,2'-disulfo(1,1'-biphenyl)-4,4'-diyl]iminocarbonyl-1,4-phenylenecarbonyl}, alpha-{[(4-methylphenyl)amino]carbonyl}-omega-[(4-methylphenyl)amino]- [Example 8C]” are over 100 µg/mL and 2.2 µg/mL.
Consider “poly{oxy[2,2'-disulfo(1,1'-biphenyl)-4,4'-diyl]oxy-carbonyl-1,4-phenylenecarbonyl}- [Example 6]”, for which the “p24 Day 2” value in data set [1] (12 μg/ml), in data set [1] (25 μg/ml), in data set [1] (50 μg/ml) and in data set [1] (100 μg/ml) was “neg” each time. For the same compound, the “p24 % of VIRUS CONTROL” value in data set [1] (12 μg/ml), in data set [1] (25 μg/ml), in data set [1] (50 μg/ml) and in data set [1] (100 μg/ml) was 0% in each case. Besides, the “SYNCYTIA Day 2” value in data set [1] (50 μg/ml) and in data set [1] (100 μg/ml) was 0 each time. Moreover, the “MEAN SYNCYTIA 3 days p.i.” value in data set [3] (25 μg/ml) is recorded as 25; in data set [3] (50 μg/ml), 12; in data set [3] (100 μg/ml), 0; in data set [3] (200 μg/ml), 0. Also, the “p24 3 days p.i.” value in data set [3] (25 μg/ml) is 6800 pg/mL; in data set [3] (50 μg/ml) it was “neg”; in data set [3] (100 μg/ml), “neg”.
For the compound “poly{oxy[2,2'-disulfo(1,1'-biphenyl)-4,4'-diyl]oxy-carbonyl}, alpha-[(4-methylphenoxy)carbonyl]-omega-(4-methylphenoxy)- [Example 5]”, the “p24 Day 2” value came out at 3250 pg/mL in data set [1] (12 μg/ml), 2320 pg/mL in data set [1] (25 μg/ml), 2780 pg/mL in data set [1] (50 μg/ml) and 1060 pg/mL in data set [1] (100 μg/ml). Further, the “p24 % of VIRUS CONTROL” value in data set [1] (12 μg/ml) was 100%; in data set [1] (25 μg/ml) it was 73%; in data set [1] (50 μg/ml) it was 87%; in data set [1] (100 μg/ml) it was 33%. The “MEAN SYNCYTIA 3 days p.i.” value in data set [3] (25 μg/ml) was over 200; in data set [3] (50 μg/ml), 68; in data set [3] (100 μg/ml), 22; in data set [3] (200 μg/ml) it was 14. Besides, the “p24 3 days p.i.” value is 67 pg/mL in data set [3] (25 μg/ml), “neg” in data set [3] (50 μg/ml), “neg” in data set [3] (100 μg/ml) and “neg” in data set [3] (200 μg/ml).
